Test [1] concerns WEHI-164. Description: Cytotoxicity against mouse WEHI164 cells assessed as cell viability after 96 hrs by MTT assay. Conditions: WEHI-164, 96 h. Type of test: functional, cell-based. On the technique in general: Formazan colour is commonly taken as a measure of viable cells.
The subject of test [2] is C6. The experiment in a line: Cytotoxicity against rat C6 cells assessed as cell viability after 96 hrs by MTT assay. Type of test: functional, cell-based. Conditions: for IC50: C6, 96 h.

The IC50 is the point on the concentration scale where inhibition reaches its midpoint.

In brackets after ≈: the same amount, converted by molar mass. Activity calls are given as the source filed them. No cut-off for these calls is given here.

In the case of `CC(C)CCCCCOS(=O)(=O)O`, the IC50 in test [1] is 15 µg/mL (≈ 71.3 µM); in test [2], 545 µg/mL (≈ 2590 µM).

Regarding `Sc1ncnc2nc[nH]c12` [MERCAPTOPURINE ANHYDROUS], the 50% inhibitory concentration (IC50) turned out to be 1.3 µg/mL (≈ 8.54 µM) in test [1] and 30.2 µg/mL (≈ 198 µM) in test [2].

In the case of `CCC=CCCCCOS(=O)(=O)O`, the IC50 came out at 12.2 µg/mL (≈ 58.6 µM) in test [1] and 515 µg/mL (≈ 2470 µM) in test [2].

In the case of `CC(C)CCC[C@@H](C)COS(=O)(=O)O`, in test [1], the IC50 came out at 20.9 µg/mL (≈ 93.2 µM). Also, the result in test [2] was inactive.

The values above are taken from ChEMBL document CHEMBL1142557, “Novel bioactive sulfated alkene and alkanes from the mediterranean ascidian Halocynthia papillosa” (J Nat Prod, 2000).
